Calls of active or inactive are those of the source.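 Rule for the calls: active = compounds giving half or more protection of infected cells from virus-caused growth loss, again on retest; inactive = the rest.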
Tested on: CEM cells HIV-1 protection, formazan growth assay
Test: NCI AIDS Antiviral Assay
Conditions: for IC50: measured here: growth of uninfected CEM cells
Procedure, shortened: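 Protection of CEM cells against HIV-1 was scored from cell growth (soluble formazan) across five concentrations, with parallel uninfected cells. Lack of protection may reflect toxicity.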

SMILES | EC50 | IC50 | outcome
CCN1C(Cl)=NS(=O)(=O)c2ccccc21 | > 200 µM | 91.2 µM | –
Clc1ccc(C=Nc2ccc(Oc3ccc(Cl)cc3)c(Cl)c2)cc1 | > 200 µM | 33.1 µM | –
S=C1NCCN1C(=S)NC1CCCCC1 | 22.4 µM | > 100 µM | –
COC(=O)C(C(=O)C(=O)Nc1nc2ccc([N+](=O)[O-])cc2s1)c1nc2ccc(Cl)cc2[nH]c1=O (configuration not stated) | > 51.3 µM | > 51.3 µM | –
CN(C)c1ccc(-c2c3ccccc3nc3ccccc23)cc1 | > 4.57 µM | > 4.57 µM | –
CCOC(=O)/C=C(\CCOC1CCCCO1)[Si](C)(C)c1ccccc1 (configuration not stated) | > 20 µM | > 20 µM | –
O=C(O)c1cc(/C=C/c2cc(O)ccc2O)ccc1O | > 182 µM | 15.5 µM | –
COC1(OC)C=CC2C1C1C=CC2C1(OC)OC (configuration not stated) | > 200 µM | > 200 µM | –
O=C(Nc1ccc2c(O)cc(S(=O)(=O)O)cc2c1)Nc1ccc2c(O)cc(S(=O)(=O)O)cc2c1 | 64.6 µM | 155 µM | –
COc1ccc(C[C@H](N)C(=O)N2C[C@H](CO)C[C@H](n3cnc4c(N(C)C)ncnc43)C2)cc1 | > 138 µM | 81.3 µM | –
Cn1ccnc1Oc1ccc(Cl)cc1 | > 200 µM | 9.77 µM | –
C[C@]12CC[C@@H]3c4cc(I)c(O)cc4CC[C@H]3[C@@H]1CC[C@@H]2O | > 200 µM | 2.09 µM | –
CC1C2(C)OC(=N)C(C#N)(C(C)O2)C1(C#N)C#N (configuration not stated) | > 200 µM | 9.77 µM | –
CN(/N=C/c1ccnc2ccccc12)c1ccc([N+](=O)[O-])cc1[N+](=O)[O-] | – | – | inactive
COc1ccc2c(c1)C/C(=C\c1ccc(O)c(OC)c1)C2=O | > 200 µM | > 200 µM | –
CC(C)OP(=O)(OC(C)C)C1=NN(c2ccc([N+](=O)[O-])cc2)C(P(=O)(OC(C)C)OC(C)C)=NN1c1ccc([N+](=O)[O-])cc1 | > 2.19 µM | > 2.19 µM | –
O=C(O)CNS(=O)(=O)c1ccc(NCc2ccccc2)cc1 | – | – | inactive
CC(=O)OCc1cc(=O)n(C)c2c3c4c(cc12)c(C)cc(=O)n4CO3 | > 7.94 µM | 1.26 µM | –
CCN(CC)c1c(C(C)(C)C)c(=O)n2ccsc2c1OC(C)=O | > 200 µM | 32.4 µM | –
Cc1cc(N(CCC#N)CCC#N)ccc1/C(Sc1ccccc1)=C(\NC(=O)/C=C/c1ccccc1)C(=O)Sc1ccccc1 | > 21.4 µM | 12.6 µM | –
c1ccc([P+](c2ccccc2)(c2ccccc2)c2ccc([P+](c3ccccc3)(c3ccccc3)c3ccccc3)cc2)cc1 | > 74.1 µM | 30.9 µM | –
CCN(CCCN(CC)C(=O)Nc1c(C)cccc1C)C(=O)Nc1c(C)cccc1C | > 200 µM | > 200 µM | –

SMILES | EC50 | IC50 | outcome
COc1ccc(C(c2ccc3cccnc3c2O)c2oc(CO)cc(=O)c2O)cc1 (configuration not stated) | – | – | inactive
Cc1nc2c(N)ncnc2o1 | > 9.55 µM | > 9.55 µM | –
O=C(CCCC[n+]1ccccc1)Sc1ccccc1C(=O)Nc1ccc(S(=O)(=O)Nc2ncccn2)cc1 | 17 µM | 56.2 µM | –
c1cnn(CN(Cn2cccn2)Cn2cccn2)c1 | – | – | inactive
O=C1OCC(Cc2ccc(O)c(O)c2)[C@H]1Cc1ccc(O)c(O)c1 (some centres not stated) | > 200 µM | 19.1 µM | –
O=C(/C=C/c1ccc2c(c1)OCO2)c1cccc2ccccc12 | > 6.61 µM | > 6.61 µM | –
CCOCC=NCC(=O)OCC | > 1450 µM | > 1450 µM | –
CC[C@]1(Cc2ccc(OC)c(OC)c2)C=[N+]([O-])O[C@H](OC2CCCC2(c2ccccc2)c2ccccc2)[C@@H]1OC(=O)C(C)(C)C (some centres not stated) | > 200 µM | 1.17 µM | –
O=S(O)c1cc(Cl)cc(Cl)c1O | – | – | inactive
CC(C)(CCC(C)(C)N1OC1c1ccccc1)N1OC1c1ccccc1 (configuration not stated) | > 200 µM | 19.1 µM | –
C=CCOc1cc2c(ccc1=O)-c1c(cc(OC)c(OC)c1OC)CCC2NC(C)=O (configuration not stated) | > 200 µM | 3.63 µM | –
CSc1nc(SC)c2ncn(C3CC(Oc4ccc(C)cc4)C(COc4ccc(C)cc4)O3)c2n1 (configuration not stated) | > 100 µM | 66.1 µM | –
CC1=NN(C(=O)c2ccccc2O)C(=O)/C1=C/c1cccc([N+](=O)[O-])c1 | > 141 µM | 0.0977 µM | –
COc1ccc(S(=O)(=O)OC)cc1C(=O)c1cc(S(=O)(=O)OC)ccc1OC | > 23.4 µM | > 23.4 µM | –
Cc1c(N=Nc2ccc(N(C)C)cc2)cc[n+]([O-])c1C | > 200 µM | > 200 µM | –
CCN(CC)CC(=O)Nc1ccc(C)c(Cl)c1 | > 200 µM | 112 µM | –
COC1=NS(=O)(=O)C(C)C(C)(C)O1 (configuration not stated) | > 427 µM | > 427 µM | –
COc1ccc([C@@H]2C[C@@H]3C(=O)OC(=O)[C@@H]3c3c2c2ccccc2n3C)cc1 | > 52.5 µM | > 52.5 µM | –
O=C1CN=C(c2ccccn2)c2cc(Cl)ccc2N1 | > 479 µM | 72.4 µM | –
CN(C)C(c1ccccc1)C(O)c1ccccc1 (configuration not stated) | – | – | inactive
Cc1cccc2c1CC1(Cc3ccccc3C1=O)C2=O (configuration not stated) | > 200 µM | > 200 µM | –
c1ccc(-c2nn3c(-c4ccccc4)nnc3o2)cc1 | > 200 µM | 40.7 µM | –

SMILES | EC50 | IC50 | outcome
CC1=NOC(=O)/C1=C/c1cccc2ccccc12 | > 1050 µM | > 1050 µM | –
NS(=O)(=O)c1nnc(NC(=O)CCC(=O)O)s1 | > 200 µM | > 200 µM | –
O=C1CCC(N2C(=O)C3CCCCC3C2=O)C(=O)N1 (configuration not stated) | > 200 µM | > 200 µM | –
CC(C)NCC(O)COC(=O)c1cccs1 (configuration not stated) | – | – | inactive
Nc1ncnc2c1ncn2CC(=O)NCCCCO | > 200 µM | > 200 µM | –
CC(C)(C)C1=NC(=P(c2ccccc2)(c2ccccc2)c2ccccc2)C(=O)O1 | > 100 µM | > 100 µM | –
Cc1ccc2[nH]c3c(ncc4[nH]c5ccccc5c43)c2c1 | > 19.1 µM | 3.89 µM | –
N#Cc1ccc(/C=N\N2C(=O)c3ccccc3C2=O)cc1 | > 26.3 µM | > 26.3 µM | –
N#CN=C1C=CC(=C(C#N)C#N)C=C1 | – | – | inactive
O=C1Nc2ccc([N+](=O)[O-])c3c(C(=O)O)ccc1c23 | > 200 µM | 141 µM | –
Cc1nn2c(=O)[nH]cnc2c1Cl | > 229 µM | > 229 µM | –
CCc1n[nH]c(=O)n1CCCCCCCCCCCCn1c(CC)n[nH]c1=O | > 200 µM | 41.7 µM | –
C=CCc1cccc(/C(O)=C/C(=O)/C=C/c2ccccc2Cl)c1O | > 200 µM | 35.5 µM | –
Cc1cn(C2CC(N=[N+]=[N-])C(COC(=O)CCOCCCCCCCCN=[N+]=[N-])O2)c(=O)[nH]c1=O (configuration not stated) | 0.00631 µM | 64.6 µM | –
COC(=O)[C@@H](O)[C@](O)(CCC(C)C)C(=O)O[C@@H]1C(OC)=C[C@]23CCCN2CCc2cc4c(cc2[C@H]13)OCO4 | > 245 µM | 0.575 µM | –
c1csc(-c2csc(-c3cccs3)c2)c1 | > 200 µM | 40.7 µM | –
CS(=O)(=O)N1CC(CCl)c2ccc(S)cc21 (configuration not stated) | – | – | inactive
Cc1ccc(S(=O)(=O)n2c3c(c4ccccc42)CCN2C[C@H]([C@H](C)Br)CC[C@@H]32)cc1 | > 200 µM | 42.7 µM | –
O=C(C1OC1c1ccc(Br)cc1O)C12CC3CC(CC(C3)C1)C2 (configuration not stated) | > 200 µM | 110 µM | –
CCOC(=O)c1c(N)sc2c1C(C(=O)OCC)CCC2 (configuration not stated) | > 200 µM | 112 µM | –
CC(=O)OC12C3C4C1C1C2C3C41OC(C)=O (configuration not stated) | > 200 µM | > 200 µM | –
CC(C)C1COC(c2cccc(C3=N[C@@H](C(C)C)CO3)n2)=N1 (some centres not stated) | > 24 µM | > 24 µM | –

SMILES | EC50 | IC50 | outcome
O=c1[nH]nc(-c2ccccc2)n1O | > 200 µM | > 200 µM | –
CCCCN=C(NC#N)NCCCC | > 457 µM | 224 µM | –
S=C(NCCNC(=S)[S][Sn]([c]1ccccc1)([c]1ccccc1)[c]1ccccc1)[S][Sn]([c]1ccccc1)([c]1ccccc1)[c]1ccccc1 | > 0.1 µM | 0.0646 µM | –
CCC1COc2nc(=O)c(C=NCCCN(C)C)c(N)n21 (configuration not stated) | > 302 µM | > 302 µM | –
CN(C)C(=C1C(Br)=C(Br)C(Br)=C1Br)N(C)C | – | – | inactive
O=C(Cc1ccccc1)N/N=C(/CCN1CCCC1)CC(c1ccccc1)c1c(O)c2ccccc2oc1=O (configuration not stated) | – | – | inactive
N#C/C(=C\n1c(=S)[nH]c2ccc([N+](=O)[O-])cc21)C(=O)c1ccc2ccccc2c1 | > 200 µM | > 200 µM | –
CN(C)N1C(=O)CC2(CCN(CCCC(=O)c3ccc(F)cc3)CC2)C1=O | > 200 µM | > 200 µM | –
CC(=O)OC1/C=C(\C)C(OC(C)=O)C/C=C(/C)CCC2C(/C=C/C1=O)C2(C)C (configuration not stated) | > 66.1 µM | > 66.1 µM | –
Cn1c(=O)n2c(=O)n(C)c(=O)n2c1=O | > 200 µM | > 200 µM | –
CC(C)N=c1sc(-c2ccccc2)c(C#N)c(=O)n1C(C)C | > 75.9 µM | 55 µM | –
N#Cc1ccc(C(C2C(=O)NC(=O)NC2=O)C2C(=O)NC(=O)NC2=O)cc1 | > 70.8 µM | > 70.8 µM | –
N.N.N.N.[Co+3].[O-][Cl+3]([O-])([O-])[O-].[OH3+].[OH3+] | – | – | inactive
O=c1[nH]c2cc(Cl)ccc2nc1/C(=N\Nc1ccccc1)C(O)c1ccc(Cl)c(Cl)c1 (configuration not stated) | > 219 µM | 18.2 µM | –
Nc1nc(N)c(-c2ccccc2)c(C(=O)Nc2nccs2)n1 | > 22.9 µM | > 22.9 µM | –
c1ccc(N2N=C3N(c4ccccc4)C2N3c2ccccc2)cc1 | > 200 µM | 30.2 µM | –
C#CCN1CCN(C(=S)N/N=C(\C)c2ccccn2)CC1 | > 2.24 µM | 0.0724 µM | –
C/C=C(\N=C=S)C(=O)OC1C(COC(C)=O)OC([C@]2(O)CC(=O)C(=N)C(C(=O)O)=C2O)C(O)C1OC1CC(OC)C(O)([C@@H](C)OC(=O)[C@@H](C)CC)C(C)O1 (some centres not stated) | – | – | inactive
N=C1N(c2ccccc2)C(=S)C(=Nc2ccccc2)N1c1ccccc1 | > 200 µM | 3.89 µM | –
COc1cnc([C@H]2CCC3[C@@H]4CC=C5C[C@@H](OC(=O)CCC(=O)O)CC[C@]5(C)C4CC[C@@]32C)s1 (some centres not stated) | > 51.3 µM | 29.5 µM | –
Cc1c(CC/C(=N\Nc2ccc([N+](=O)[O-])cc2[N+](=O)[O-])c2ccccc2)c2ccccc2n1C | – | – | inactive
Oc1cc(O)c2ccc(-c3ccc(O)c(O)c3)[o+]c2c1 | > 200 µM | 12.3 µM | –

Source: PubChem BioAssay AID179 (DTP/NCI, 2004)
